Experimental data: patent US12371454B2, “Cyclic peptide compound having Kras inhibitory action” (priority 2019, dated 2025)
pIC50: −log10 of the molar value. Starred links: 1 amine or outer side, 2 acyl side, 3 side chain; linkers in the order of their positions; H or OH if unused. Positions of bridges follow the written chain, without caps; N, C: chain ends. Non-standard residues stand in square brackets, D forms with d. Residues, ends and D or L forms follow the SMILES beside them. *: point of attachment. hPhe(3,5-F2-4-CF3) = N[C@@H](CCc1cc(F)c(C(F)(F)F)c(F)c1)C(=O)O; hPhe(3-Cl-4-CF3) = N[C@@H](CCc1ccc(C(F)(F)F)c(Cl)c1)C(=O)O; X48 = O=C([C@H](CCc1ccc(S(F)(F)(F)(F)F)cc1)N[*:1])[*:2]; X38 = CN([C@@H](Cc1cccc(OC(F)(F)F)c1)C(=O)[*:2])[*:1]; NMePhe(4-CF3) = CN[C@@H](Cc1ccc(C(F)(F)F)cc1)C(=O)O; hPhe(4-CF3) = N[C@@H](CCc1ccc(C(F)(F)F)cc1)C(=O)O; NMeAbu(4,4,4-F3) = CN[C@@H](CC(F)(F)F)C(=O)O; NMePhe(4-Cl) = CN[C@@H](Cc1ccc(Cl)cc1)C(=O)O; X18 = Cc1ccc(Br)cc1C[C@H](N[*:1])C(=O)[*:2]; Phe(3-I) = N[C@@H](Cc1cccc(I)c1)C(=O)O; Pro(4,4-F2) = O=C(O)[C@@H]1CC(F)(F)CN1; NMeY = CN[C@@H](Cc1ccc(O)cc1)C(=O)O; NMeCha = CN[C@@H](CC1CCCCC1)C(=O)O; NMeChg = CN[C@H](C(=O)O)C1CCCCC1; hPhe = N[C@@H](CCc1ccccc1)C(=O)O; NMeD = CN[C@@H](CC(=O)O)C(=O)O; NMeL = CN[C@@H](CC(C)C)C(=O)O; Ahp(2) = CCCCC[C@H](N)C(=O)O; NMeV = CN[C@H](C(=O)O)C(C)C; d(β3hA) = C[C@@H](N)CC(=O)O; NMeAbu = CC[C@H](NC)C(=O)O; NMeA = CN[C@@H](C)C(=O)O; NMeAib = CNC(C)(C)C(=O)O; Nle = CCCC[C@H](N)C(=O)O; Piperidide = C1CCN(*)CC1; Pyrrolidide = C1CCN(*)C1; Ac5c = NC1(C(=O)O)CCCC1; Aze = O=C(O)[C@@H]1CCN1; Sar = CNCC(=O)O

biological target: T1, Kras and SOS1 (biotin-tagged human Kras loaded with GDP, His-tagged human SOS1) (Homo sapiens, UniProt P01116, G12D); assay: Protein-protein interaction inhibition between Kras and SOS1 (KrasGl2D-SOS PPI) using AlphaScreen; assay type: binding; conditions: AlphaScreen; biotin-tagged human Kras loaded with GDP, His-tagged human SOS1; read-out: KRAS G12D-SOS PPI IC50
T1 construct: made in house; host or cells: E. coli (stated for Kras only)
Summary of the method: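 Donor beads (nickel) hold His-SOS1; acceptor beads (streptavidin) hold biotin-Kras bound to GDP. Signal measured at 520-620 nm following 680 nm excitation.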

T1 sequence (P01116 1-188 isoform P01116-2 G12D): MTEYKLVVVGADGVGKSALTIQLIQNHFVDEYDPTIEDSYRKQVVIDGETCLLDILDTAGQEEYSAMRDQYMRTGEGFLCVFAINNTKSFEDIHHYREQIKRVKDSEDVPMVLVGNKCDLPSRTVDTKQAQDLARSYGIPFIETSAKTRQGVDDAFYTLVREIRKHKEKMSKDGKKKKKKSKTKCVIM

Row | Compound | pIC50
1 | CC[C@H](C)[C@@H]1NC(=O)[C@H](CC(F)(F)F)N(C)C(=O)C[C@@H](C(=O)N2CCCC2)N(C)C(=O)[C@H](C2CCCCC2)N(C)C(=O)C2(CCCC2)NC(=O)[C@@H]2CC(F)(F)CN2C(=O)[C@H](CCc2cc(F)c(C(F)(F)F)c(F)c2)NC(=O)CN(C)C(=O)[C@H](Cc2ccc(C(F)(F)F)cc2)N(C)C(=O)CN(C)C(=O)CN(C)C1=O [Compound 1303] ([NMeAbu(4,4,4-F3)]I[Sar][Sar][NMePhe(4-CF3)][Sar][hPhe(3,5-F2-4-CF3)][Pro(4,4-F2)][Ac5c][NMeChg][NMeD]-Pyrrolidide; lactam N-11) | 9.14
2 | CCCCC[C@@H]1NC(=O)[C@H](CC(C)C)N(C)C(=O)C[C@@H](C(=O)N2CCCCC2)N(C)C(=O)[C@H](C2CCCCC2)N(C)C(=O)C2(CCCC2)NC(=O)[C@@H]2CCCN2C(=O)[C@H](CCc2ccc(C(F)(F)F)c(Cl)c2)NC(=O)CN(C)C(=O)[C@H](CC2CCCCC2)N(C)C(=O)CN(C)C(=O)CN(C)C1=O [Compound 1692] ([NMeL][Ahp(2)][Sar][Sar][NMeCha][Sar][hPhe(3-Cl-4-CF3)]P[Ac5c][NMeChg][NMeD]-Piperidide; lactam N-11) | 8.46
3 | CCCC[C@@H]1NC(=O)[C@H](Cc2cc(Br)ccc2C)NC(=O)CN(C)C(=O)[C@H](Cc2ccc(OC)cc2)N(C)C(=O)[C@@H]2CCN2C(=O)[C@H](C)N(C)C(=O)[C@H]([C@@H](C)CC)NC(=O)[C@H](CC)N(C)C(=O)C[C@@H](C(=O)N2CCCCC2)N(C)C(=O)[C@H](CC(C)C)NC(=O)C(C)(C)N(C)C1=O [Compound 1195] ([NMeAbu]I[NMeA][Aze][NMeY](Me)[Sar][X18][Nle][NMeAib]L[NMeD]-Piperidide; lactam N-11) | 7.42
4 | CC[C@H](C)[C@@H]1NC(=O)[C@H](CC(C)C)N(C)C(=O)C[C@@H](C)NC(=O)[C@H](CC(C)C)N(C)C(=O)C2(CCCC2)NC(=O)[C@@H]2CCCN2C(=O)[C@H](CCc2ccc(S(F)(F)(F)(F)F)cc2)NC(=O)CN(C)C(=O)[C@H](CC2CCCCC2)N(C)C(=O)CN(C)C(=O)CN(C)C1=O [Compound 1021] (cyclo([Ac5c][NMeL][d(β3hA)][NMeL]I[Sar][Sar][NMeCha][Sar][X48]P)) | 6.62
5 | CC[C@H](C)[C@@H]1NC(=O)[C@H](CC(C)C)N(C)C(=O)C[C@@H](C)NC(=O)[C@H](C(C)C)N(C)C(=O)C2(CCCC2)NC(=O)[C@@H]2CCCN2C(=O)[C@H](CCc2ccc(C(F)(F)F)c(Cl)c2)NC(=O)CN(C)C(=O)[C@H](Cc2cccc(OC(F)(F)F)c2)N(C)C(=O)CN(C)C(=O)CN(C)C1=O [Compound 1573] (cyclo([Ac5c][NMeV][d(β3hA)][NMeL]I[Sar][Sar][X38][Sar][hPhe(3-Cl-4-CF3)]P)) | 7.24
6 | CC[C@H](C)[C@@H]1NC(=O)[C@H](CC2CCCCC2)N(C)C(=O)C[C@@H](C)NC(=O)[C@H](CC(C)C)N(C)C(=O)C2(CCCC2)NC(=O)[C@@H]2CCCN2C(=O)[C@H](CCc2ccc(C(F)(F)F)cc2)NC(=O)CN(C)C(=O)[C@H](Cc2ccc(Cl)cc2)N(C)C(=O)CN(C)C(=O)CN(C)C1=O [Compound 578] (cyclo([Ac5c][NMeL][d(β3hA)][NMeCha]I[Sar][Sar][NMePhe(4-Cl)][Sar][hPhe(4-CF3)]P)) | 6.92
7 | CC[C@H](C)[C@@H]1NC(=O)[C@H](CC(C)C)N(C)C(=O)C[C@@H](C(=O)N2CCCCC2)N(C)C(=O)[C@H](C2CCCCC2)N(C)C(=O)[C@@H](C)NC(=O)[C@@H]2CCCN2C(=O)[C@H](CCc2ccc(C(F)(F)F)c(Cl)c2)NC(=O)CN(C)C(=O)[C@H](CC2CCCCC2)N(C)C(=O)CN(C)C(=O)CN(C)C1=O [Compound 917] ([NMeL]I[Sar][Sar][NMeCha][Sar][hPhe(3-Cl-4-CF3)]P[dA][NMeChg][NMeD]-Piperidide; lactam N-11) | 8.70
8 | CC[C@H](C)[C@@H]1NC(=O)[C@H](C(C)C)N(C)C(=O)C[C@@H](C)NC(=O)[C@H](CC(C)C)N(C)C(=O)C2(CCCC2)NC(=O)[C@H](CC(C)C)N(C)C(=O)[C@H](CCc2ccc(C(F)(F)F)cc2)NC(=O)CN(C)C(=O)[C@H](Cc2ccc(Cl)cc2)N(C)C(=O)CN(C)C(=O)[C@@H]2CCN2C1=O [Compound 538] (cyclo([Ac5c][NMeL][d(β3hA)][NMeV]I[Aze][Sar][NMePhe(4-Cl)][Sar][hPhe(4-CF3)][NMeL])) | 6.96
9 | CC[C@H](C)[C@@H]1NC(=O)[C@H](CC(C)C)N(C)C(=O)C[C@@H](C(=O)N2CCCCC2)N(C)C(=O)[C@H](CC(C)C)NC(=O)C(C)(C)N(C)C(=O)[C@H](CCc2ccccc2)NC(=O)[C@H](Cc2cccc(I)c2)NC(=O)CN(C)C(=O)[C@H](CC2CCCCC2)N(C)C(=O)[C@@H]2CCN2C(=O)CN(C)C1=O [Compound 931] ([NMeL]I[Sar][Aze][NMeCha][Sar][Phe(3-I)][hPhe][NMeAib]L[NMeD]-Piperidide; lactam N-11) | 6.57
